# Data: Sander's compilation of Henry's law constants
# Test: Henry solubility constant Hcp at 298.15 K (mol/(m3 Pa))
# [1] = reference: Murphy et al. (1983a)
# [2] = reference: Bakierowska and Trzeszczyński (2003)
# [3] = reference: Bowden et al. (1998a)
# [4] = reference: Jantunen and Bidleman (2006)
# [5] = reference: Xu and Kropscott (2014)
structure (smiles),measurement,setting,value
CC(C)(N)CO [2-amino-2-methyl-1-propanol],Henry solubility constant Hcp,reference: Nguyen (2013),700
CCCCOCCOC(C)=O [2-butoxyethyl ethanoate],Henry solubility constant Hcp,reference: Kim et al. (2000),1.8
"Clc1ccc(Cl)c(-c2cccc(Cl)c2Cl)c1 [2,2',3,5'-tetrachlorobiphenyl]",Henry solubility constant Hcp,[1],0.041
"FC(C(F)(F)F)C(F)(F)F [1,1,1,2,3,3,3-heptafluoropropane]",Henry solubility constant Hcp,reference: Reichl (1995),1.4e-05
C1=CCCC1 [cyclopentene],Henry solubility constant Hcp,[2],0.00023
S=C=S [carbon disulfide],Henry solubility constant Hcp,reference: De Bruyn et al. (1995b),0.00054
same,Henry solubility constant Hcp,reference: Elliott (1989),0.00062
O=C(O)C(Cl)Cl [dichloroethanoic acid],Henry solubility constant Hcp,[3],1200
"CC12CCC(CC1)C(C)(C)O2 [1,3,3-trimethyl-2-oxabicyclo[2.2.2]octane]",Henry solubility constant Hcp,reference: Amoore and Buttery (1978),0.12
same,Henry solubility constant Hcp,reference: Kish et al. (2013),0.059
Clc1ccccc1-c1ccccc1 [2-chlorobiphenyl],Henry solubility constant Hcp,reference: Charles and Destaillats (2005),0.03
C=C/C(C)=C/C/C=C(\C)CCC=C(C)C [α-farnesene],Henry solubility constant Hcp,reference: Schuhfried et al. (2015),8.1e-06
c1cc2c3c(cccc3c1)CC2 [acenaphthene],Henry solubility constant Hcp,reference: Mackay et al. (1979),0.068
same,Henry solubility constant Hcp,reference: Warner et al. (1980),0.041
CCOC(=O)CC [ethyl propanoate],Henry solubility constant Hcp,reference: Fenclová et al. (2014),0.041
CCc1nccnc1OC [2-ethyl-3-methoxypyrazine],Henry solubility constant Hcp,reference: Buttery et al. (1971),0.67
"Clc1ccc(-c2c(Cl)cc(Cl)c(Cl)c2Cl)cc1Cl [2,3,3',4,4',6-hexachlorobiphenyl]",Henry solubility constant Hcp,[1],0.015
COc1cc(CCC(C)=O)cc(OC)c1O [syringylacetone],Henry solubility constant Hcp,reference: McFall et al. (2020),1.2e+06
"ClC(Cl)=C(c1ccc(Cl)cc1)c1ccc(Cl)cc1 [1,1-dichloro-2,2-bis-(4-chlorophenyl)-ethene]",Henry solubility constant Hcp,[4],0.029
C[Si](C)(C)O [trimethylsilanol],Henry solubility constant Hcp,[5],0.07
CCCC(C)O[N+](=O)[O-] (stereo not drawn) [2-pentyl nitrate],Henry solubility constant Hcp,reference: Hauff et al. (1998),0.0037
CCCCNCCCC [dibutylamine],Henry solubility constant Hcp,reference: Christie and Crisp (1967),0.11
"CC(C)(C)OC=O [(1,1-dimethylethyl)-methanoate]",Henry solubility constant Hcp,reference: Arp and Schmidt (2004),0.014
"OCCC(F)(F)C(F)(F)C(F)(F)C(F)(F)F [1H,1H,2H,2H-perfluorohexan-1-ol]",Henry solubility constant Hcp,reference: Goss et al. (2006),0.013
same,Henry solubility constant Hcp,reference: Lei et al. (2004),6.1e-05
same,Henry solubility constant Hcp,reference: Wu and Chang (2011),0.0066
CC(=O)O[O] [peroxyacetyl radical],Henry solubility constant Hcp,reference: Villalta et al. (1996),< 0.00099
"CC(O)C(F)(F)F (stereo not drawn) [1,1,1-trifluoro-2-propanol]",Henry solubility constant Hcp,reference: Rochester and Symonds (1973),0.45
"Clc1ccc(Cl)c(-c2c(Cl)cc(Cl)c(Cl)c2Cl)c1 [2,2',3,4,5',6-hexachlorobiphenyl]",Henry solubility constant Hcp,[1],0.016
"CC(=O)OCC(F)(F)F [2,2,2-trifluoroethyl ethanoate]",Henry solubility constant Hcp,reference: Kutsuna et al. (2004),0.0057
[Xe] [xenon],Henry solubility constant Hcp,reference: Crovetto et al. (1982),4.2e-05
same,Henry solubility constant Hcp,reference: Krause and Benson (1989),4.3e-05
same,Henry solubility constant Hcp,reference: Morrison and Johnstone (1954),4.2e-05
same,Henry solubility constant Hcp,reference: von Antropoff (1910),4.4e-05
ClC1=C(Cl)C2(Cl)C3C(Cl)C(Cl)C(Cl)C3C1(Cl)C2(Cl)Cl (stereo not drawn) [trans-nonachlor],Henry solubility constant Hcp,[4],0.031
O=C(O)C(Br)(Br)Br [tribromoethanoic acid],Henry solubility constant Hcp,[3],2900
"Clc1ccc(-c2cc(Cl)ccc2Cl)c(Cl)c1 [2,2',4,5'-tetrachlorobiphenyl]",Henry solubility constant Hcp,[1],0.049
CCCSSCCC [dipropyl disulfide],Henry solubility constant Hcp,reference: Schuhfried et al. (2011),0.0024
C[Si](C)(C)O[Si](C)(C)O[Si](C)(C)O[Si](C)(C)C [decamethyltetrasiloxane],Henry solubility constant Hcp,[5],1.4e-07
"CCC=CCCC=CC=O [trans-2,cis-6-nonadienal]",Henry solubility constant Hcp,reference: Ömür-Özbek and Dietrich (2005),0.082
"CC(C)(Cl)Cl [2,2-dichloropropane]",Henry solubility constant Hcp,[2],0.00081
CCC(=O)C(C)C [2-methyl-3-pentanone],Henry solubility constant Hcp,reference: Hovorka et al. (2019),0.052
O=C(O)C(F)(F)C(F)(F)C(F)(F)C(F)(F)C(F)(F)C(F)(F)F [perfluoroheptanoic acid],Henry solubility constant Hcp,reference: Kwan (2001),1.7
